The values below come from EP1203770A1 (priority 1992, dated 1994).

Usually Ki stands for the dissociation constant of the complex between target and ligand, obtained from inhibition or displacement. Broadly, the IC50 is the concentration that gives 50% inhibition.

This assay addresses T1, HIV-1 protease (Human immunodeficiency virus type 1 group M subtype B, UniProt P04585).
T1 construct: The protease (or proteinase), consisting of only 99 amino acids, is among the smallest enzymes known
The assay is described as follows: In vitro HIV protease inhibitory assay (HIV Protease FITC Assay). The conditions noted are these: for inhibition at 100 µM: HIV-1 Dose 100.000 uM; for inhibition at 1 µM: HIV-1 Dose 1.000 uM. The assay is classed as biochemical. On the procedure: The HIV protease screening assay is based on a fluorescently labeled substrate which can be resolved from nonlabeled cleavage product using avidin-polystyrene particles, 0.7-0.9 µm. The substrate is biotinylated at the amino terminal arginine and fluorescently labeled with fluorescein isothiocynate (FITC) at the carboxyl terminal lysine. […] Substrate (20 µl of 0.2 µM), sample (10 µl of desired concentraion), and enzyme (10 µl of 0.1 µM) are added to a 96 well pandex plate. The assay is run in 0.1 M sodium acetate buffer at pH 5.5 in the presence of 1.0 M sodium chloride and 0.05% NP-40 and incubated in the dark for one hour at room temperature. Avidin coated polystyrene beads {40 µl of 0.1% (w/v)} are added and the incubation is continued in the dark for an additional half hour. The labeled cleavage product is separated from the unreacted substrate via filtration and is read on the Idexx Screen Machine. The data are analyzed by appropriate computer algorithms to ascertain percent inhibition values.

The mark [1] stands for this setting: read-out: HIV-1 Protease % Inhib.
Setting [2] is: HIV-1 Dose 0.123 uM, read-out: HIV-1 Protease % Inhib.
Where [3] appears, read: HIV-1 Dose 0.370 uM, read-out: HIV-1 Protease % Inhib.
[4] abbreviates: HIV-1 Dose 1.100 uM, read-out: HIV-1 Protease % Inhib.
[5] abbreviates: HIV-1 Dose 3.300 uM, read-out: HIV-1 Protease % Inhib.
The mark [6] stands for this setting: HIV-1 Dose 10.000 uM, read-out: HIV-1 Protease % Inhib.
Where [7] appears, read: HIV-1 Dose 30.000 uM, read-out: HIV-1 Protease % Inhib.

Like-named read-outs stand apart in the source and are kept apart here.

`C=CC(C1=C(O)CC2(CCC3(CC2)OCCO3)OC1=O)c1ccccc1` (stereo not drawn) [Example 113, 12-Hydroxy-11-(1-phenyl-allyl)-1,4,9-trioxa-dispiro[4.2.5.2]pentadec-11-en-10-one]: the inhibition at 0.41 µM (HIV-1 Dose 0.410 uM, read-out: HIV-1 Protease % Inhib) is less than 10%. For the same molecule, for the setting “HIV-1 Dose 1.230 uM, read-out: HIV-1 Protease % Inhib”, the inhibition at 1.23 µM is 15.3%. Moreover, the inhibition at 3.7 µM (HIV-1 Dose 3.700 uM, read-out: HIV-1 Protease % Inhib) was 42.8%. Also, the inhibition at 11 µM (HIV-1 Dose 11.000 uM, read-out: HIV-1 Protease % Inhib) is 79.7%. The inhibition at 33 µM (HIV-1 Dose 33.000 uM, read-out: HIV-1 Protease % Inhib) was determined as 101%. Further, the inhibition at 100 µM under setting [1] was found to be 107%. Under “read-out: HIV-1 FITC Ki”, the Ki was found to be 2.56 µM.
On to `CCC(Cc1cccc(Br)c1)c1cc(O)c(C(c2ccccc2)C2CC2)c(=O)o1` (stereo not drawn) [Example 159, 3-(α-cyclopropylbenzyl)-4-hydroxy-6-(α-ethyl-m-bromophenethyl)-2H-pyran-2-one], for which, under setting [2], the inhibition at 0.123 µM is less than 10%. Moreover, the inhibition at 0.37 µM under setting [3] was determined as 20.6%. Further, the inhibition at 1.1 µM under setting [4] came out at 56.4%. Besides, the inhibition at 3.3 µM under setting [5] was 76.2%. The inhibition at 10 µM under setting [6] was 92.3%. Besides, the inhibition at 30 µM under setting [7] worked out at 95.1%. Besides, the Ki (read-out: HIV-1 FITC Ki) came to 0.207 µM.
Regarding `CCCCC1(Cc2ccccc2)CC(O)=C(C(C=Cc2ccccc2)c2ccccc2)C(=O)O1` (stereo not drawn) [Example 217, 2H-Pyran-2-one, 6-butyl-5,6-dihydro-3-(1,3-diphenyl-2-propenyl)-4-hydroxy-6-phenylmethyl-], the inhibition at 0.123 µM under setting [2] was less than 10%. Moreover, under setting [3], the inhibition at 0.37 µM is less than 10%. Also, the inhibition at 1.1 µM under setting [4] is less than 10%. The inhibition at 3.3 µM under setting [5] was determined as 33.1%. Further, under setting [6], the inhibition at 10 µM stood at 62.4%. For the same molecule, the inhibition at 30 µM under setting [7] was 69.1%.
Take `CC(C)CC1(CCc2ccccc2)CC(O)=C(C(c2ccccc2)c2ccccc2)C(=O)O1` (stereo not drawn) [Example 209, 2H-Pyran-2-one, 3-diphenylmethyl-5,6-dihydro-4-hydroxy-6-(2-methylpropyl)-6-(2-phenylethyl)-]: under setting [2], the inhibition at 0.123 µM was less than 10%. Under setting [3], the inhibition at 0.37 µM came out at 12%. Further, the inhibition at 1.1 µM under setting [4] turned out to be 32.2%. Besides, the inhibition at 3.3 µM under setting [5] is 59.9%. The inhibition at 10 µM under setting [6] came out at 76.7%. Under setting [7], the inhibition at 30 µM turned out to be 77.8%. In addition, under “read-out: HIV-1 FITC Ki”, the Ki came to 0.092 µM.
In the case of `CCC(c1ccccc1)c1c(O)cc(C=Cc2ccc(OC)cc2)oc1=O` (stereo not drawn) [Example 15, 3-(α-ethylbenzyl)-4-hydroxy-6-(p-methoxystyryl)-2H-Pyran-2-one], the IC50 worked out at 9.7 µM. Under setting [1], the inhibition at 1 µM stood at 21.5% and the inhibition at 100 µM worked out at 102%. Under setting [6], the inhibition at 10 µM is 84%.
For `CCCC1(CCCc2ccccc2)CC(O)=C(C(c2ccc(COCOC)s2)C2CC2)C(=O)O1` (stereo not drawn) [Example 241, 2H-Pyran-2-one, 3-(α-cyclopropyl-[5-(methoxymethoxy-methyl)-thiophen-2-yl]-methyl)-5,6-dihydro-4-hydroxy-6-(3-phenylpropyl)-6-propyl-], the inhibition at 0.123 µM under setting [2] was less than 10%. Moreover, under setting [3], the inhibition at 0.37 µM is less than 10%. Besides, the inhibition at 1.1 µM under setting [4] was found to be 32.8%. Besides, the inhibition at 3.3 µM under setting [5] turned out to be 62.9%. Further, under setting [6], the inhibition at 10 µM was found to be 87.1%. Under setting [7], the inhibition at 30 µM is 90.3%.
With `CCC(Cc1cccc(C(F)(F)F)c1)c1cc(O)c(C(c2ccccc2)C2CC2)c(=O)o1` (stereo not drawn) [Example 161, 3-(α-cyclopropylbenzyl)-4-hydroxy-6-(α-ethyl-m-triflurormethylphenethyl)-2H-pyran-2-one], the inhibition at 0.123 µM under setting [2] was less than 10%. In addition, under setting [3], the inhibition at 0.37 µM was less than 10%. The inhibition at 1.1 µM under setting [4] came to 41.8%. The inhibition at 3.3 µM under setting [5] was determined as 78%. For the same molecule, the inhibition at 10 µM under setting [6] was determined as 96.5%. Further, the inhibition at 30 µM under setting [7] was found to be 105%.
In the case of `CCC(CCN1CCOCC1)c1cc(O)c(C(c2ccccc2)C2CC2)c(=O)o1` (stereo not drawn) [Example 131, 3-(Cyclopropylphenylmethyl)-6-[1-ethyl-3-(4-morpholinyl)propyl]-4-hydroxy-2H-pyran-2-one], under setting [2], the inhibition at 0.123 µM is less than 10%. The inhibition at 0.37 µM under setting [3] is less than 10%. For the same molecule, under setting [4], the inhibition at 1.1 µM is less than 10%. The inhibition at 3.3 µM under setting [5] is less than 10%. Also, the inhibition at 10 µM under setting [6] was 13.2%. The inhibition at 30 µM under setting [7] was found to be 45.9%.
As to `CCC(CC1=CCCOC1)c1cc(O)c(C(c2ccccc2)C2CC2)c(=O)o1` (stereo not drawn) [Example 76, 3-(Cyclopropyl-phenyl-methyl)-6-[1-(5,6-dihydro-2H-pyran-3-ylmethyl)-propyl]-4-hydroxy-pyran-2-one], the inhibition at 0.123 µM under setting [2] is 25%. Besides, the inhibition at 0.37 µM under setting [3] was 54%. Under setting [4], the inhibition at 1.1 µM stood at 82.4%. For the same molecule, the inhibition at 3.3 µM under setting [5] stood at 98.9%. In addition, the inhibition at 10 µM under setting [6] was 102%. In addition, under setting [7], the inhibition at 30 µM worked out at 105%.
In the case of `CCC(CCC1CCCCC1)c1cc(O)c(C(c2ccccc2)C2CC2)c(=O)o1` (stereo not drawn) [Example 95, 6-(3-Cyclohexyl-1-ethyl-propyl)-3-(cyclopropyl-phenyl-methyl)-4-hydroxy-pyran-2-one], under setting [1], the inhibition at 1 µM was less than 10% and the inhibition at 100 µM worked out at 41%. The inhibition at 10 µM under setting [6] worked out at 33.6%.
With `CCC(Cc1ccccc1)c1cc(O)c(C(c2cccc(NS(=O)(=O)c3ccc(Cl)cc3)c2)C2CC2)c(=O)o1` (stereo not drawn) [Example 224, 3-(α-Cyclopropyl-meta-(4-chlorophenylsulfonylamino)benzyl)-6-(α-ethylphenethyl)-4-hydroxy-2H-pyran-2-one], the Ki is 0.0147 µM. Besides, under setting [1], the inhibition at 0.123 µM amounted to 46.9%, the inhibition at 0.37 µM is 76.9%, the inhibition at 1.1 µM came out at 99.6% and the inhibition at 3.3 µM stood at 97.1%. Further, under setting [1], the inhibition at 10 µM is 110% and the inhibition at 30 µM turned out to be 105%.
For `CCCC1(CCCc2ccccc2)CC(O)=C(C(c2ccccc2)c2ccccc2)C(=O)O1` (stereo not drawn) [Example 242, 2H-Pyran-2-one, 5,6-dihydro-3-diphenylmethyl-4-hydroxy-6-(3-phenylpropyl)-6-propyl-], the inhibition at 0.123 µM under setting [2] was less than 10%. In addition, the inhibition at 0.37 µM under setting [3] worked out at 19.9%. For the same molecule, under setting [4], the inhibition at 1.1 µM amounted to 53.5%. Also, the inhibition at 3.3 µM under setting [5] was determined as 80.5%. Under setting [6], the inhibition at 10 µM was 90.2%. Further, the inhibition at 30 µM under setting [7] turned out to be 93.2%. Moreover, the Ki (read-out: HIV-1 FITC Ki) came to 0.0323 µM.
With `CCCCC1(Cc2ccccc2)CC(O)=C(C(CC)c2ccccc2)C(=O)O1` (stereo not drawn) [Example 220, 2H-Pyran-2-one, 6-butyl-5,6-dihydro-4-hydroxy-6-phenylmethyl-3-(1-phenylpropyl)-], the inhibition at 0.123 µM under setting [2] is less than 10%. The inhibition at 0.37 µM under setting [3] was less than 10%. Besides, under setting [4], the inhibition at 1.1 µM is 21.3%. Besides, the inhibition at 3.3 µM under setting [5] came out at 51.6%. In addition, the inhibition at 10 µM under setting [6] came out at 68.4%. Besides, the inhibition at 30 µM under setting [7] was determined as 62.2%.
`C=CC(C1=C(O)CC2(CCCC2)OC1=O)c1ccccc1` (stereo not drawn) [Example 128, 4-Hydroxy-3-(1-phenylallyl)-1-oxa-spiro[5.4]-dec-3-en-2-one]: the inhibition at 0.123 µM under setting [2] was less than 10%. The inhibition at 0.37 µM under setting [3] was less than 10%. For the same molecule, the inhibition at 1.1 µM under setting [4] turned out to be 18.5%. In addition, under setting [5], the inhibition at 3.3 µM turned out to be 46.8%. Also, the inhibition at 10 µM under setting [6] came to 79.8%. Moreover, the inhibition at 30 µM under setting [7] was determined as 95.7%.
